# Legend:
# [1] = target: T1, human URAT1 h-M25V (Homo sapiens, UniProt Q96S37, M25V); experiment: URAT1 activity assay, h-M25V; type: cell-based; conditions: TM1 point mutant, read-out: Verinurad affinity (IC50)
# T1 construct: expressed in transfected cells; host or cells: HEK-293T
# From the text: (§1) Human URAT1 (GenBank BC053348.1, Homo sapiens SLC22A12), rat URAT1 (NCBI NM_001034943.1, Rattus norvegicus Slc22a12) and human OAT4 (NCBI NM_018484.2, Homo sapiens SLC22A11) genes were purchased from Origene Technologies, Inc. and subcloned into pCMV6/neo using NotI. Where indicated, controls transfections used pCMV6/neo. Mutants were produced by site-directed mutagenesis using the QuikChange Lightning Multi Site-Directed Mutagenesis Kit (Agilent Technologies). […] Mutagenic primer sequences are provided in ref. [15] and mutagenic primer sequences for previously unreported mutants shown in Supplementary Table 1. All constructs used in this study were untagged. Human OAT1 was purchased from Fisher Scientific (catalog # MHS1010–7508183 in pSPORT6, NCBI NM_153276.2, Homo sapiens SLC22A6).
# (§2) HEK-293T cells were maintained in DMEM/high glucose/L-glutamine/HEPES supplemented with 1 mM sodium pyruvate (Life Technologies) and 10% FBS (PAA Laboratories) at 37 °C in 5% CO2. […]
# (§3) URAT1 and OAT4 activity assays were performed in assay buffer consisting of 25 mM MES pH 5.5 (from a 1 M MES solution [Sigma] adjusted to pH 5.5 with sodium hydroxide), 125 mM sodium gluconate, 4.8 mM potassium gluconate, 1.2 mM monobasic potassium phosphate, 1.2 mM magnesium sulfate, 1.3 mM calcium gluconate and 5.6 mM glucose. […] Each treatment was measured in triplicate.
# [2] = target: T2, human URAT1 h-M29L (Homo sapiens, UniProt Q96S37, M29L); experiment: URAT1 activity assay, h-M29L; type: cell-based; conditions: TM1 point mutant, read-out: Verinurad affinity (IC50)
# T2 construct: expressed in transfected cells; host or cells: HEK-293T
# From the text: as §1, §2, §3
# [3] = target: T3, human URAT1 h-C32T (Homo sapiens, UniProt Q96S37, C32T); experiment: URAT1 activity assay, h-C32T; type: cell-based
# T3 construct: expressed in transfected cells; host or cells: HEK-293T
# From the text: as §1, §2, §3
# [4] = target: T4, human URAT1 h-V18L (Homo sapiens, UniProt Q96S37, V18L); experiment: URAT1 activity assay, h-V18L; type: cell-based; conditions: TM1 point mutant, read-out: Verinurad affinity (IC50)
# T4 construct: expressed in transfected cells; host or cells: HEK-293T
# From the text: as §1, §2, §3
# [5] = target: T5, human URAT1 h-V26T (Homo sapiens, UniProt Q96S37, V26T); experiment: URAT1 activity assay, h-V26T; type: cell-based; conditions: TM1 point mutant, read-out: Verinurad affinity (IC50)
# T5 construct: expressed in transfected cells; host or cells: HEK-293T
# From the text: as §1, §2, §3
# [6] = target: T6, human URAT1 h-M22V (Homo sapiens, UniProt Q96S37, M22V); experiment: URAT1 activity assay, h-M22V; type: cell-based; conditions: TM1 point mutant, read-out: Verinurad affinity (IC50)
# T6 construct: expressed in transfected cells; host or cells: HEK-293T
# From the text: as §1, §2, §3
# [7] = target: T7, human URAT1-F365Y (Homo sapiens, UniProt Q96S37, F365Y); experiment: URAT1 activity assay, h-F365Y; type: cell-based
# T7 construct: expressed in transfected cells; host or cells: HEK-293T
# From the text: as §1, §2, §3
# [8] = target: T8, human URAT1 h-R477K (Homo sapiens, UniProt Q96S37, R477K); experiment: URAT1 activity assay, h-R477K; type: cell-based
# T8 construct: expressed in transfected cells; host or cells: HEK-293T
# T8 sequence (Q96S37 1-553 R477K): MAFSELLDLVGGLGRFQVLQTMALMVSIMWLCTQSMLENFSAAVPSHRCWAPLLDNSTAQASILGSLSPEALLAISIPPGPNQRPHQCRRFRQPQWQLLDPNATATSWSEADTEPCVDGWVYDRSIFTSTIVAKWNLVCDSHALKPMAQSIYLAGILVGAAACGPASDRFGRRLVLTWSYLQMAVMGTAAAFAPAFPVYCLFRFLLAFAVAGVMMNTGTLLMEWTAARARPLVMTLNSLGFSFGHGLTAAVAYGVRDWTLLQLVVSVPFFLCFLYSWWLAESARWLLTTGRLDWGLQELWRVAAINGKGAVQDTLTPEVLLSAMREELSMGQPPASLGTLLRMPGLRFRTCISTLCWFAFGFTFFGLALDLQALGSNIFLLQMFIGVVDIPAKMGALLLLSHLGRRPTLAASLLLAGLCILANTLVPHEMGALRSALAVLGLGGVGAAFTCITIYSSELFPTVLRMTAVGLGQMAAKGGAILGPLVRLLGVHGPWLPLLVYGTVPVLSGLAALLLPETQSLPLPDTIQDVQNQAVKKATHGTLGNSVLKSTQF
# From the text: as §1
# HEK-293T cells were maintained in DMEM/high glucose/L-glutamine/HEPES supplemented with 1 mM sodium pyruvate (Life Technologies) and 10% FBS (PAA Laboratories) at 37 °C in 5% CO2. To express URAT1, OAT4 or OAT1, plasmids were reverse transfected into HEK-293T cells. DNA (10 µg) was mixed with 30 µl of DreamFect Gold (Boca Scientific) in 2 ml OptiMem (Life Technologies). After 20 minutes, 18 ml of media containing 2 × 10^7 cells in suspension was added and mixed, and 200 µl per well were plated onto white clear-bottomed poly-D-lysine coated 96-well plates (BD Biosciences). The cells were assayed the following day.
# URAT1 and OAT4 activity assays were performed in assay buffer consisting of 25 mM MES pH 5.5 (from a 1 M MES solution [Sigma] adjusted to pH 5.5 with sodium hydroxide), 125 mM sodium gluconate, 4.8 mM potassium gluconate, 1.2 mM monobasic potassium phosphate, 1.2 mM magnesium sulfate, 1.3 mM calcium gluconate and 5.6 mM glucose. URAT1 inhibitors were serially diluted into assay buffer and added to the cells for 5 minutes prior to addition of substrate. URAT1-expressing cells were incubated with 100 µM ^14C-uric acid for 10 minutes and OAT4-expressing cells were incubated with 20 µM carboxyfluorescein (Life Technologies, Inc.) for 5 minutes. Cells were then washed three times in 25 mM MES pH 5.5/125 mM sodium gluconate, and solubilized in Ultima Gold (Perkin Elmer) prior to liquid scintillation counting. Each treatment was measured in triplicate.
# [9] = test system: healthy human volunteers; experiment: Verinurad study in humans (sUA and FEUA after a single dose); type: in vivo; conditions: single 40 mg dose
# Procedure: The study was conducted in accordance with Good Clinical Practice and the Declaration of Helsinki and with independent ethics committee (Welwyn Clinical Pharmacology Ethics Committee, Hatfield, UK) approval. Informed consent was obtained from all subjects before participating in the study. […] Urine samples were collected from 0 to 6 hours, 6 to 12 hours and 12 to 24 hours post dosing to measure the urinary excretion of uric acid and creatinine. FEUA was calculated using equation 1:1 FEUA=([urineuricacid]×[serumcreatinine])/([serumuricacid]×[urinecreatinine]) To determine time-weighted average plasma verinurad concentrations (TWA), plasma verinurad levels were first measured from serial plasma collections.
# T3 sequence (Q96S37 whole entry C32T): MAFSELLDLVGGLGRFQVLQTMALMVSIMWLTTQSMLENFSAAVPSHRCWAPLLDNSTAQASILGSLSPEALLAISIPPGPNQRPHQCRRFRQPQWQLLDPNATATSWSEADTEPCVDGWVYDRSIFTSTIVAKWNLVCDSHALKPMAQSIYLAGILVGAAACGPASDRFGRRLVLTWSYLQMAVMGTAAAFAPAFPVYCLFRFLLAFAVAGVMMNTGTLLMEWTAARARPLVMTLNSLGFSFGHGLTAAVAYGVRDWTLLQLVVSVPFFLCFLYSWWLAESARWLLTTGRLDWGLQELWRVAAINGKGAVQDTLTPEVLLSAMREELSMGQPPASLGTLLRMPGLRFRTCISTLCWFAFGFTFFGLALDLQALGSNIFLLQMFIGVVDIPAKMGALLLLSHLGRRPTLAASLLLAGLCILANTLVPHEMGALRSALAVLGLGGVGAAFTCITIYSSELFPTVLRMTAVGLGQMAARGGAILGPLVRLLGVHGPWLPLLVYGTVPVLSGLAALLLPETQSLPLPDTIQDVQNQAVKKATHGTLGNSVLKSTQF
# T7 sequence (Q96S37 whole entry F365Y): as the sequence (Q96S37 whole entry C32T) above, with T32C, F365Y counted along it
# T1 sequence (Q96S37 whole entry M25V): as the sequence (Q96S37 whole entry C32T) above, with M25V, T32C counted along it
# T6 sequence (Q96S37 whole entry M22V): as the sequence (Q96S37 whole entry C32T) above, with M22V, T32C counted along it
# T4 sequence (Q96S37 whole entry V18L): as the sequence (Q96S37 whole entry C32T) above, with V18L, T32C counted along it
# T5 sequence (Q96S37 whole entry V26T): as the sequence (Q96S37 whole entry C32T) above, with V26T, T32C counted along it
# T2 sequence (Q96S37 whole entry M29L): as the sequence (Q96S37 whole entry C32T) above, with M29L, T32C counted along it
smiles,measurement,setting,value
"CC(C)(Sc1ccncc1-c1ccc(C#N)c2ccccc12)C(=O)O [Verinurad, 2-((3-(4-cyanonaphthalen-1-yl)pyrindin-4-yl)thio)-2-methylpropanoic acid]",IC50,[1],0.029 ± 0.01 µM
same,IC50,[2],0.011 ± 0.0029 µM
same,fold reduced affinity relative to human URAT1,[3],4 fold
same,IC50,"[3]; TM1 point mutant, read-out: Verinurad affinity (IC50)",0.095 ± 0.026 µM
same,IC50,[4],0.026 ± 0.015 µM
same,IC50,[5],0.014 ± 0.0015 µM
same,IC50,[6],0.029 ± 0.013 µM
same,fold lower affinity relative to human URAT1,[7],160 fold
same,IC50,"[7]; TM7 point mutant, read-out: Verinurad affinity (IC50)",4 ± 1.7 µM
same,fold reduced affinity compared to human URAT1,[8]; h-R477K,9 fold
same,IC50,[8]; h-R477K binding site point mutant,0.23 µM
same,time sUA is maintained below pretreatment levels,[9],24 h
same,EC50,"[9]; healthy human volunteers, time-weighted average plasma concentration, read-out: half-maximal effective concentration in plasma for increase in FEUA",0.022 µM
